From patent publication US7745575B1 (Cellpep Pharma Inc., priority 2004, dated 2010)
Bridge positions count the residues as written; N and C are the ends. Peptide text beside a SMILES is read from it. * marks the point of attachment. Pentanoyl = CCCCC(=O)*

Assay: toxicity in vivo, LD50 after intracerebroventricular injection
Settings: mouse, icv or intrathecal, 20 g C57/BL6 mice
Protocol: Groups of six to eight mice per dose were injected with 5 μl peptide solution containing 0.1% (w/v) bovine serum albumin and 0.9% (w/v) NaCl. The LD50 values are set out in Table 5.

SMILES	LD50 [µg/kg]
CC[C@H](C)[C@@H]1NC(=O)[C@H](CCCCN)NC(=O)[C@@H](NC(=O)[C@H](CCCCN)NC(=O)[C@@H](NC(=O)[C@H](CC(N)=O)NC(=O)[C@@H](NC(=O)[C@@H](NC(=O)[C@@H](N)[C@@H](C)O)[C@@H](C)CC)[C@@H](C)CC)C(C)C)CSSC[C@@H]2NC(=O)[C@H](CCCCN)NC(=O)CNC(=O)[C@H](Cc3ccccc3)NC(=O)[C@H](CCCNC(=N)N)NC(=O)[C@H](CCSC)NC(=O)CNC(=O)[C@H](C)NC(=O)[C@H](CC(=O)O)NC(=O)[C@H](CCCCN)NC(=O)[C@@H]3CSSC[C@@H](C(=O)N[C@H](C(=O)N4CCC[C@H]4C(=O)N[C@@H](CCCCN)C(=O)O)[C@@H](C)O)NC(=O)[C@H](Cc4c[nH]cn4)NC(=O)[C@H](CSSC[C@H](NC(=O)[C@H](CCC(N)=O)NC(=O)[C@H](CCCNC(=N)N)NC(=O)[C@H](CO)NC1=O)C(=O)N[C@@H](CC(C)C)C(=O)N[C@@H](CCCCN)C(=O)N1CCC[C@H]1C(=O)N3)NC(=O)[C@H](CCCCN)NC(=O)CNC(=O)[C@H](CC(N)=O)NC(=O)[C@H](CCSC)NC2=O (H-TIINVKCKISRQCLKPCKDAGMRFGKCMNGKCHCTPK-OH; disulfide 7-27, 13-32, 17-34)	3
CC[C@H](C)[C@@H]1NC(=O)[C@H](CCCCN)NC(=O)[C@@H](NC(=O)[C@H](CCCCN)NC(=O)[C@@H](NC(=O)[C@H](CC(N)=O)NC(=O)[C@@H](NC(=O)[C@@H](NC(=O)[C@@H](NC(=O)CN)C(C)C)[C@@H](C)CC)[C@@H](C)CC)C(C)C)CSSC[C@@H]2NC(=O)[C@H](CCCCN)NC(=O)CNC(=O)[C@H](Cc3ccccc3)NC(=O)[C@H](CCCNC(=N)N)NC(=O)[C@H](CCSC)NC(=O)CNC(=O)[C@H](C)NC(=O)[C@H](CC(=O)O)NC(=O)[C@H](CCCCN)NC(=O)[C@@H]3CSSC[C@@H](C(=O)N[C@H](C(=O)N4CCC[C@H]4C(=O)N[C@@H](CCCCN)C(=O)O)[C@@H](C)O)NC(=O)[C@H](Cc4c[nH]cn4)NC(=O)[C@H](CSSC[C@H](NC(=O)[C@H](CCC(N)=O)NC(=O)[C@H](CCCNC(=N)N)NC(=O)[C@H](CO)NC1=O)C(=O)N[C@@H](CC(C)C)C(=O)N[C@@H](CCC(=O)O)C(=O)N1CCC[C@H]1C(=O)N3)NC(=O)[C@H](CCCCN)NC(=O)CNC(=O)[C@H](CC(N)=O)NC(=O)[C@H](CCSC)NC2=O [[D^20]-OsK1] (H-GVIINVKCKISRQCLEPCKDAGMRFGKCMNGKCHCTPK-OH; disulfide 8-28, 14-33, 18-35)	4.5
CC[C@H](C)[C@@H]1NC(=O)[C@H](CCCCN)NC(=O)[C@@H](NC(=O)[C@H](CCCCN)NC(=O)[C@@H](NC(=O)[C@H](CC(N)=O)NC(=O)[C@@H](NC(=O)[C@@H](NC(=O)[C@@H](N)C(C)C)[C@@H](C)CC)[C@@H](C)CC)C(C)C)CSSC[C@@H]2NC(=O)[C@H](CCCCN)NC(=O)CNC(=O)[C@H](Cc3ccccc3)NC(=O)[C@H](CCCNC(=N)N)NC(=O)[C@H](CCSC)NC(=O)CNC(=O)[C@H](C)NC(=O)[C@H](CCCCN)NC(=O)[C@H](CCCCN)NC(=O)[C@@H]3CSSC[C@@H](C(=O)N[C@H](C(=O)N4CCC[C@H]4C(=O)N[C@@H](CCCCN)C(N)=O)[C@@H](C)O)NC(=O)[C@H](Cc4c[nH]cn4)NC(=O)[C@H](CSSC[C@H](NC(=O)[C@H](CCC(N)=O)NC(=O)[C@H](CCCNC(=N)N)NC(=O)[C@H](CO)NC1=O)C(=O)N[C@@H](CC(C)C)C(=O)N[C@@H](CCC(=O)O)C(=O)N1CCC[C@H]1C(=O)N3)NC(=O)[C@H](CCCCN)NC(=O)CNC(=O)[C@H](CC(N)=O)NC(=O)[C@H](CCSC)NC2=O [[Δ^1]-OsK1-NH2] (H-VIINVKCKISRQCLEPCKKAGMRFGKCMNGKCHCTPK-NH2; disulfide 7-27, 13-32, 17-34)	7
CC[C@H](C)[C@@H]1NC(=O)[C@H](CCCCN)NC(=O)[C@@H](NC(=O)[C@H](CCCCN)NC(=O)[C@@H](NC(=O)[C@H](CC(N)=O)NC(=O)[C@@H](NC(=O)[C@@H](NC(=O)[C@@H](NC(=O)CN)C(C)C)[C@@H](C)CC)[C@@H](C)CC)C(C)C)CSSC[C@@H]2NC(=O)[C@H](CCCCN)NC(=O)CNC(=O)[C@H](CC(N)=O)NC(=O)[C@H](CCCNC(=N)N)NC(=O)[C@H](CCSC)NC(=O)CNC(=O)[C@H](C)NC(=O)[C@H](CC(=O)O)NC(=O)[C@H](CCCCN)NC(=O)[C@@H]3CSSC[C@@H](C(=O)N[C@H](C(=O)N4CCC[C@H]4C(=O)N[C@@H](CCCCN)C(=O)O)[C@@H](C)O)NC(=O)[C@H](Cc4c[nH]cn4)NC(=O)[C@H](CSSC[C@H](NC(=O)[C@H](CCC(N)=O)NC(=O)[C@H](CCCNC(=N)N)NC(=O)[C@H](CO)NC1=O)C(=O)N[C@@H](CC(C)C)C(=O)N[C@@H](CCCCN)C(=O)N1CCC[C@H]1C(=O)N3)NC(=O)[C@H](CCCCN)NC(=O)CNC(=O)[C@H](CC(N)=O)NC(=O)[C@H](CCSC)NC2=O (H-GVIINVKCKISRQCLKPCKDAGMRNGKCMNGKCHCTPK-OH; disulfide 8-28, 14-33, 18-35)	11.5
CC[C@H](C)[C@@H]1NC(=O)[C@H](CCCCN)NC(=O)[C@@H](NC(=O)[C@H](CCCCN)NC(=O)[C@@H](NC(=O)[C@@H](N)CC(N)=O)C(C)C)CSSC[C@@H]2NC(=O)[C@H](CCCCN)NC(=O)CNC(=O)[C@H](Cc3ccccc3)NC(=O)[C@H](CCCNC(=N)N)NC(=O)[C@H](CCSC)NC(=O)CNC(=O)[C@H](C)NC(=O)[C@H](CC(=O)O)NC(=O)[C@H](CCCCN)NC(=O)[C@@H]3CSSC[C@@H](C(=O)N[C@H](C(=O)N4CCC[C@H]4C(=O)N[C@@H](CCCCN)C(=O)O)[C@@H](C)O)NC(=O)[C@H](Cc4c[nH]cn4)NC(=O)[C@H](CSSC[C@H](NC(=O)[C@H](CCC(N)=O)NC(=O)[C@H](CCCNC(=N)N)NC(=O)[C@H](CO)NC1=O)C(=O)N[C@@H](CC(C)C)C(=O)N[C@@H](CCCCN)C(=O)N1CCC[C@H]1C(=O)N3)NC(=O)[C@H](CCCCN)NC(=O)CNC(=O)[C@H](CC(N)=O)NC(=O)[C@H](CCSC)NC2=O (H-NVKCKISRQCLKPCKDAGMRFGKCMNGKCHCTPK-OH; disulfide 4-24, 10-29, 14-31)	5
CCCCC(=O)NCC(=O)N[C@H](C(=O)N[C@H](C(=O)N[C@H](C(=O)N[C@@H](CC(N)=O)C(=O)N[C@H](C(=O)N[C@@H](CCCCN)C(=O)N[C@H]1CSSC[C@@H]2NC(=O)[C@H](CCCCN)NC(=O)CNC(=O)[C@H](Cc3ccccc3)NC(=O)[C@H](CCCNC(=N)N)NC(=O)[C@H](CCSC)NC(=O)CNC(=O)[C@H](C)NC(=O)[C@H](CC(=O)O)NC(=O)[C@H](CCCCN)NC(=O)[C@@H]3CSSC[C@@H](C(=O)N[C@H](C(=O)N4CCC[C@H]4C(=O)N[C@@H](CCCCN)C(=O)O)[C@@H](C)O)NC(=O)[C@H](Cc4c[nH]cn4)NC(=O)[C@H](CSSC[C@H](NC(=O)[C@H](CCC(N)=O)NC(=O)[C@H](CCCNC(=N)N)NC(=O)[C@H](CO)NC(=O)[C@H]([C@@H](C)CC)NC(=O)[C@H](CCCCN)NC1=O)C(=O)N[C@@H](CC(C)C)C(=O)N[C@@H](CCCCN)C(=O)N1CCC[C@H]1C(=O)N3)NC(=O)[C@H](CCCCN)NC(=O)CNC(=O)[C@H](CC(N)=O)NC(=O)[C@H](CCSC)NC2=O)C(C)C)[C@@H](C)CC)[C@@H](C)CC)C(C)C (Pentanoyl-GVIINVKCKISRQCLKPCKDAGMRFGKCMNGKCHCTPK-OH; disulfide 8-28, 14-33, 18-35)	16
CC[C@H](C)[C@@H]1NC(=O)[C@H](CCCCN)NC(=O)[C@@H](NC(=O)[C@H](CCCCN)NC(=O)[C@@H](NC(=O)[C@H](CC(N)=O)NC(=O)[C@@H](NC(=O)[C@@H](NC(=O)[C@@H](N)C(C)C)[C@@H](C)CC)[C@@H](C)CC)C(C)C)CSSC[C@@H]2NC(=O)[C@H](CCCCN)NC(=O)CNC(=O)[C@H](Cc3ccccc3)NC(=O)[C@H](CCCNC(=N)N)NC(=O)[C@H](CCSC)NC(=O)CNC(=O)[C@H](C)NC(=O)[C@H](CC(=O)O)NC(=O)[C@H](CCCCN)NC(=O)[C@@H]3CSSC[C@@H](C(=O)N[C@H](C(=O)N4CCC[C@H]4C(=O)N[C@@H](CCCCN)C(N)=O)[C@@H](C)O)NC(=O)[C@H](Cc4c[nH]cn4)NC(=O)[C@H](CSSC[C@H](NC(=O)[C@H](CCC(N)=O)NC(=O)[C@H](CCCNC(=N)N)NC(=O)[C@H](CO)NC1=O)C(=O)N[C@@H](CC(C)C)C(=O)N[C@@H](CCCCN)C(=O)N1CCC[C@H]1C(=O)N3)NC(=O)[C@H](CCCCN)NC(=O)CNC(=O)[C@H](CC(N)=O)NC(=O)[C@H](CCSC)NC2=O (H-VIINVKCKISRQCLKPCKDAGMRFGKCMNGKCHCTPK-NH2; disulfide 7-27, 13-32, 17-34)	4.5
CC[C@H](C)[C@@H]1NC(=O)[C@H](CCCCN)NC(=O)[C@@H](NC(=O)[C@H](CCCCN)NC(=O)[C@@H](NC(=O)[C@H](CC(N)=O)NC(=O)[C@@H](NC(=O)[C@@H](NC(=O)[C@@H](NC(=O)CN)C(C)C)[C@@H](C)CC)[C@@H](C)CC)C(C)C)CSSC[C@@H]2NC(=O)[C@H](CCCCN)NC(=O)CNC(=O)[C@H](Cc3ccccc3)NC(=O)[C@H](CCCNC(=N)N)NC(=O)[C@H](CCSC)NC(=O)CNC(=O)[C@H](C)NC(=O)[C@H](CCCCN)NC(=O)[C@H](CCCCN)NC(=O)[C@@H]3CSSC[C@@H](C(=O)N[C@H](C(=O)N4CCC[C@H]4C(=O)N[C@@H](CCCCN)C(=O)O)[C@@H](C)O)NC(=O)[C@H](C)NC(=O)[C@H](CSSC[C@H](NC(=O)[C@H](CCC(N)=O)NC(=O)[C@H](CCCNC(=N)N)NC(=O)[C@H](CO)NC1=O)C(=O)N[C@@H](CC(C)C)C(=O)N[C@@H](CCC(=O)O)C(=O)N1CCC[C@H]1C(=O)N3)NC(=O)[C@H](CCCCN)NC(=O)CNC(=O)[C@H](CC(N)=O)NC(=O)[C@H](CCSC)NC2=O [[A^34]-OsK1] (H-GVIINVKCKISRQCLEPCKKAGMRFGKCMNGKCACTPK-OH; disulfide 8-28, 14-33, 18-35)	10
CC[C@H](C)[C@@H]1NC(=O)[C@H](CCCCN)NC(=O)[C@@H](NC(=O)[C@H](CCCCN)NC(=O)[C@@H](NC(=O)[C@H](CC(N)=O)NC(=O)[C@@H](NC(=O)[C@@H](NC(=O)[C@@H](NC(=O)CN)C(C)C)[C@@H](C)CC)[C@@H](C)CC)C(C)C)CSSC[C@@H]2NC(=O)[C@H](CCCCN)NC(=O)CNC(=O)[C@H](Cc3ccccc3)NC(=O)[C@H](CCCNC(=N)N)NC(=O)[C@H](CCSC)NC(=O)CNC(=O)[C@H](C)NC(=O)[C@H](CC(=O)O)NC(=O)[C@H](CCCCN)NC(=O)[C@@H]3CSSC[C@@H](C(=O)N[C@H](C(=O)N4CCC[C@H]4C(=O)N[C@@H](CCCCN)C(=O)O)[C@@H](C)O)NC(=O)[C@H](Cc4c[nH]cn4)NC(=O)[C@H](CSSC[C@H](NC(=O)[C@H](CCC(N)=O)NC(=O)[C@H](CCCNC(=N)N)NC(=O)[C@H](CO)NC1=O)C(=O)N[C@@H](CC(C)C)C(=O)N[C@@H](CCCCN)C(=O)N1CCC[C@H]1C(=O)N3)NC(=O)[C@H](CCCCN)NC(=O)[C@H](CCCNC(=N)N)NC(=O)[C@H](CC(N)=O)NC(=O)[C@H](CCSC)NC2=O	5
